Measured values from patent US6087119A, “Method for determining the catalytic activity of factor IXa” (Roche Diagnostics GmbH, priority 1996, dated 2000).
Several values for one entry are separate records, joined by “and”; a condition that tells them apart may be missing. Identical values can stand only once. Like-named read-outs stand apart in the source and are kept apart here.

Columns and labels:
[1] = biological target: thrombin (bovine) (Bos taurus, UniProt P00735); settings: thrombin 0.045 μmol/l, MeSO2-D-HHT-Gly-Arg-pNA 1.02 mmol/l, pH 7.4
From the text: Thrombin Test Mixture (Concentration in the Test)
(§1) 42 mmol/l Tris-HCl, pH 7.4
(§2) 1.02 mmol/l MeSO2 -D-HHT-Gly-Arg-pNA
0.045 μmol/l thrombin (bovine)
(§3) 0-50% ethanol or ethylene glycol

[2] = biological target: T1, rFIXa (human) (Homo sapiens, UniProt P00740); settings: fluorogenic MeSO2-D-CHA-Gly-Arg-AMC 0.51 mmol/l, 0.08 μmol/l rFIXa, pH 7.4
From the text: The stimulation of human rFIXa by ethanol and ethylene glycol was examined using the peptide substrates MeSO2 -D-HHT-Gly-Arg-pNA (Pefachrom tPA, Pentapharm Ltd., Basel, Switzerland), MOC-D-Nle-Gly-Arg-pNA (Chromozym X, Boehringer Mannheim GmbH, Mannheim, Germany, Cat.No. 789763), MeSO2 -D-CHG-Gly-Arg-pNA (Pentapharm Ltd., Basel, Switzerland), MeSO2 -D-CHA-Gly-Arg-pNA (Pentapharm Ltd., Basel, Switzerland) and MeSO2 -D-CHA-Gly-Arg-AMC (Pentapharm Ltd., Basel, Switzerland).
Test Mixture Fluorogenic (Concentration in the Test)
0.51 mmol/l MeSO2 -D-CHA-Gly-Arg-AMC
0.08 μmol/l rFIXa (human)
Target sequence in this assay (P00740 227-461): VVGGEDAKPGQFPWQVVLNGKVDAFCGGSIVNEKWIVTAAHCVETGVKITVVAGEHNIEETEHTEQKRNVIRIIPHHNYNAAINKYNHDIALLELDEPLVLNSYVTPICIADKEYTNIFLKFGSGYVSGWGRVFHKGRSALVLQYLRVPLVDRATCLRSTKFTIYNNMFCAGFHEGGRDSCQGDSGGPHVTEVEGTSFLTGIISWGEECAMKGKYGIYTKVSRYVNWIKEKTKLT
Target sequence in this assay (P00740 131-226): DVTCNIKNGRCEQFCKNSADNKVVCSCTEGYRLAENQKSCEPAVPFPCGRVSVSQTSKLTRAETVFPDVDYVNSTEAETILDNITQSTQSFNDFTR

[3] = biological target: T1, rFIXa (human); assay: Influence of alcohols and organic solvents on the activity of rFIXa, chromogenic peptide substrates; assay type: biochemical; set-up: coding for the FIX protease domain from amino acid position 181 to 415; Met (ATG start codon) (N); made in house; settings: for V/V0: pH 7.4
Experimental: The reaction was started by adding FIXa.
MeSO2 -D-HHT-Gly-Arg-pNA→MeSO2 -D-HHT-Gly-Arg+pNA measurement signal: pNA
0.48 μmol/l rFIXa (human)
0-50% (alcohol or organic solvent)
The ratio V/V0 was calculated to illustrate the stimulation of the catalytic activity of rFIXa.
V0, reaction rate without additives
V, reaction rate in the presence of additives
Test Mixture Chromogenic (Concentration in the Test)
Target sequence in this assay (P00740 227-461 limits assumed): as the sequence (P00740 227-461) above
Target sequence in this assay (P00740 131-226 partner limits assumed): as the sequence (P00740 131-226) above

[4] = biological target: FXa (bovine) (Bos taurus, UniProt P00743); settings: FXa 0.088 μmol/l, MeSO2-D-HHT-Gly-Arg-pNA 1.02 mmol/l, pH 7.4
From the text: FXa Test Mixture (concentration in the Test)
as §1, §2
0.088 μmol/l FXa (bovine)
as §3

[5] = biological target: FXIIa (human) (Homo sapiens, UniProt P00748); settings: FXIIa 0.0045 U/ml, MeSO2-D-HHT-Gly-Arg-pNA 1.02 mmol/l, pH 7.4
From the text: FXIIa Test Mixture (Concentration in the Test)
as §1, §2
0.0045 U/ml FXIIa (human)
as §3

[6] = biological target: FXIa (human) (Homo sapiens, UniProt P03951); settings: FXIa 0.0012 μmol/l, MeSO2-D-HHT-Gly-Arg-pNA 1.02 mmol/l, pH 7.4
From the text: FXIa Test Mixture (Concentration in the Test)
as §1, §2
0.0012 μmol/l FXIa (human)
as §3

[7] = biological target: native FIXa (human) (Homo sapiens, UniProt P00740); settings: pH 7.4; for V/V0: MeSO2-D-HHT-Gly-Arg-pNA 1.02 mmol/l, 0.14 μmol/l native FIXa
Experimental: The FIXa test was carried out with recombinantly produced native human FIXa as a sample and the peptide substrate MeSO2 -D-HHT-Gly-Arg-pNA (Pefachrom tPA, Pentapharm Ltd., Basel, Switzerland) or other chromogenic/fluorogenic substrates of the R-D-Xxx-Gly-Arg-pNA type (EP-B 0 034 122) in Tris-HCl buffer and the substances to be tested (alcohol, solvents and inhibitors). The reaction was started by adding FIXa.
The test mixture was incubated at room temperature (25° C.) in a microtitre plate and the change in absorbance (ΔA/min) was measured at 405 nm using an ELISA reader. The activity and the kinetic constants were determined from the linear initial slope according to the Michaelis-Menten equation.
as §2
0.14 μmol/l native FIXa (human)
as §3
FIXa Test Mixture (Concentration in the Test)

[8] = biological target: plasma kallikrein (human) (Homo sapiens, UniProt P03952); settings: PKallikrein 0.0176 U/ml, MeSO2-D-HHT-Gly-Arg-pNA 1.02 mmol/l, pH 7.4
From the text: Plasma Kallikrein Test Mixture (Concentration in the Test)
as §1, §2
0.0176 U/ml plasma kallikrein (human)
as §3

Sequence of FXa (bovine) (P00743 234-492 limits assumed): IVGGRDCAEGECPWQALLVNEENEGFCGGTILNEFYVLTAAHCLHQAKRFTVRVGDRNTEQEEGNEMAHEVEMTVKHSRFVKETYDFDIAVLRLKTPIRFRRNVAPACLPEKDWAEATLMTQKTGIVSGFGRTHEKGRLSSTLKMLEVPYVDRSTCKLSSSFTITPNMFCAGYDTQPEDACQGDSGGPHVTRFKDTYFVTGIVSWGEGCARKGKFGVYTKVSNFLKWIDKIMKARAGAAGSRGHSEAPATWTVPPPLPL
Sequence of FXa (bovine) (P00743 41-180 partner limits assumed): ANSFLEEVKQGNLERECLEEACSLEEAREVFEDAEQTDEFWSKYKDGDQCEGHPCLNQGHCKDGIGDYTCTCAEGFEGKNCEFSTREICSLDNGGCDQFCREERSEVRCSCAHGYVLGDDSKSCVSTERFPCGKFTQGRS
Sequence of FXIa (human) (P03951 388-625 limits assumed): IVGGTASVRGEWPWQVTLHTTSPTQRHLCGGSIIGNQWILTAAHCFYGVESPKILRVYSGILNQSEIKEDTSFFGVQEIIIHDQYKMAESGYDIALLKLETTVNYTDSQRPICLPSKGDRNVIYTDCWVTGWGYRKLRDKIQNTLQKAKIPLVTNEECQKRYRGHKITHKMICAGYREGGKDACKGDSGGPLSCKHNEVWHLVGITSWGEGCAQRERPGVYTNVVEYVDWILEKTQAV
Sequence of FXIa (human) (P03951 19-387 partner limits assumed): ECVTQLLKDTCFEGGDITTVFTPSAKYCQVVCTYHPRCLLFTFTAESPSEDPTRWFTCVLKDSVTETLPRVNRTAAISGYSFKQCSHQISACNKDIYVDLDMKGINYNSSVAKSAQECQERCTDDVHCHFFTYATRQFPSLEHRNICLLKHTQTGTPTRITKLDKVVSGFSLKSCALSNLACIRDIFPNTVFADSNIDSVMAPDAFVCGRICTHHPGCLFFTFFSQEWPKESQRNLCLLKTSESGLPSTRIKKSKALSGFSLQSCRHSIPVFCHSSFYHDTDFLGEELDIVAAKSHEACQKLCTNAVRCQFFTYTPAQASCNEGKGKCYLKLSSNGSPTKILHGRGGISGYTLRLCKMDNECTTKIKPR
Sequence of native FIXa (human) (P00740 227-461 limits assumed): as the sequence (P00740 227-461) above
Sequence of native FIXa (human) (P00740 47-191 partner limits assumed): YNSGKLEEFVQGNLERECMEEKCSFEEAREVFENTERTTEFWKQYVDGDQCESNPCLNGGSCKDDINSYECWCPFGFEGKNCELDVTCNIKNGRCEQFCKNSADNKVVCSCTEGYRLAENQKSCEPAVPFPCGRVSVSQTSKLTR
Sequence of plasma kallikrein (human) (P03952 391-638 limits assumed): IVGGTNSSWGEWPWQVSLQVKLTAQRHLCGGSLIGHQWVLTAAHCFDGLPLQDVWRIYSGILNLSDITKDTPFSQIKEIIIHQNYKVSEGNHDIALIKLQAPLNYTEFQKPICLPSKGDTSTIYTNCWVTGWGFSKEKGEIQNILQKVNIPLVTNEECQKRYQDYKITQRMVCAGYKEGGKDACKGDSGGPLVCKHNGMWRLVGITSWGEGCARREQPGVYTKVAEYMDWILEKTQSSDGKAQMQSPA
Sequence of plasma kallikrein (human) (P03952 20-390 partner limits assumed): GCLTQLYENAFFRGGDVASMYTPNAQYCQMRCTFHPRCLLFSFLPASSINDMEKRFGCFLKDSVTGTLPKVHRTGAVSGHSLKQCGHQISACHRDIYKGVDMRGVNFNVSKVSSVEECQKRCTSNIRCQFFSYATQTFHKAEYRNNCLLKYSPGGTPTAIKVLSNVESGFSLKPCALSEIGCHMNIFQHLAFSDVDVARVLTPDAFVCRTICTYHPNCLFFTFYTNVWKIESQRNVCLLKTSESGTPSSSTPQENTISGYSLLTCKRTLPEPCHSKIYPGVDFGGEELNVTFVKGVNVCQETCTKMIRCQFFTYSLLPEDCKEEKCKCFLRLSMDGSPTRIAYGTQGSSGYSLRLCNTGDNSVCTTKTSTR
Sequence of FXIIa (human) (P00748 373-615 limits assumed, other chains not shown): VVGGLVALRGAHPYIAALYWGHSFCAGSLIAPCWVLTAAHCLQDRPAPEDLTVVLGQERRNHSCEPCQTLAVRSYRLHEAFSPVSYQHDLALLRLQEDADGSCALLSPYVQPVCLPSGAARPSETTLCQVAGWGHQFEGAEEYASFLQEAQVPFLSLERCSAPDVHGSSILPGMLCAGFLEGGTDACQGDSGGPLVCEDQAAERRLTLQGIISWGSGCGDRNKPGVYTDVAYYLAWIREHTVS

How did the V/V0 ([1]; 8% alcohol) turn out when OCCO [Ethylene glycol] was run?
Its V/V0 is 0.924.

And the V/V0 ([1]; 16% alcohol)?
The V/V0 was 0.862.

And the V/V0 ([1]; 25% alcohol)?
Its V/V0 is 0.763.

And the V/V0 ([1]; 33% alcohol)?
The V/V0 was 0.653.

And the V/V0 ([1]; 41% alcohol)?
The V/V0 was 0.508.

What about the V/V0 ([1]; 50% alcohol) of the same compound?
The V/V0 was 0.395.

What about the V/V0 ([2]; 8% additive) of the same compound?
Its V/V0 is 2.55.

What about the V/V0 ([2]; 16% additive) of the same compound?
Its V/V0 is 5.59.

And the V/V0 ([2]; 25% additive)?
The V/V0 was 8.40.

What about the V/V0 ([2]; 33% additive) of the same compound?
The V/V0 was 8.90 and 9.

What about the V/V0 ([2]; 41% additive) of the same compound?
Its V/V0 is 5.79.

What about the V/V0 ([2]; 50% additive) of the same compound?
Its V/V0 is 1.44.

What about the V/V0 ([3]; 8% additive, MOC-D-Nle-Gly-Arg-pNA 0.82 mmol/l, 0.48 μmol/l rFIXa) of the same compound?
The V/V0 was 3.91.

What about the V/V0 ([3]; 8% additive, MeSO2-D-CHA-Gly-Arg-pNA 1.02 mmol/l, 0.48 μmol/l rFIXa) of the same compound?
Its V/V0 is 2.84.

And the V/V0 ([3]; 8% additive, MeSO2-D-CHG-Gly-Arg-pNA 1.02 mmol/l, […] rFIXa)?
The V/V0 was 5.47.

What about the V/V0 ([3]; 8% additive, MeSO2-D-HHT-Gly-Arg-pNA 1.02 mmol/l, 0.48 μmol/l rFIXa) of the same compound?
Its V/V0 is 2.91.

What about the V/V0 ([3]; 16% additive, MOC-D-Nle-Gly-Arg-pNA 0.82 mmol/l, 0.48 μmol/l rFIXa) of the same compound?
Its V/V0 is 8.85.

What about the V/V0 ([3]; 16% additive, MeSO2-D-CHA-Gly-Arg-pNA 1.02 mmol/l, 0.48 μmol/l rFIXa) of the same compound?
Its V/V0 is 6.26.

And the V/V0 ([3]; 16% additive, MeSO2-D-CHG-Gly-Arg-pNA 1.02 mmol/l, […] rFIXa)?
Its V/V0 is 13.13.

What about the V/V0 ([3]; 16% additive, MeSO2-D-HHT-Gly-Arg-pNA 1.02 mmol/l, 0.48 μmol/l rFIXa) of the same compound?
Its V/V0 is 6.05.

And the V/V0 ([3]; 25% additive, MOC-D-Nle-Gly-Arg-pNA 0.82 mmol/l, 0.48 μmol/l rFIXa)?
The V/V0 was 17.07.

What about the V/V0 ([3]; 25% additive, MeSO2-D-CHA-Gly-Arg-pNA 1.02 mmol/l, 0.48 μmol/l rFIXa) of the same compound?
Its V/V0 is 9.34.

What about the V/V0 ([3]; 25% additive, MeSO2-D-CHG-Gly-Arg-pNA 1.02 mmol/l, […] rFIXa) of the same compound?
Its V/V0 is 19.37.

And the V/V0 ([3]; 25% additive, MeSO2-D-HHT-Gly-Arg-pNA 1.02 mmol/l, 0.48 μmol/l rFIXa)?
Its V/V0 is 10.27.

What about the V/V0 ([3]; 33% additive, MOC-D-Nle-Gly-Arg-pNA 0.82 mmol/l, 0.48 μmol/l rFIXa) of the same compound?
The V/V0 was 22.42.

What about the V/V0 ([3]; 33% additive, MeSO2-D-CHA-Gly-Arg-pNA 1.02 mmol/l, 0.48 μmol/l rFIXa) of the same compound?
The V/V0 was 11.18 and 11.

And the V/V0 ([3]; 33% additive, MeSO2-D-CHG-Gly-Arg-pNA 1.02 mmol/l, […] rFIXa)?
The V/V0 was 23.20.

And the V/V0 ([3]; 33% additive, MeSO2-D-HHT-Gly-Arg-pNA 1.02 mmol/l, 0.48 μmol/l rFIXa)?
The V/V0 was 12.68.

And the V/V0 ([3]; 41% additive, MOC-D-Nle-Gly-Arg-pNA 0.82 mmol/l, 0.48 μmol/l rFIXa)?
The V/V0 was 17.80.

And the V/V0 ([3]; 41% additive, MeSO2-D-CHA-Gly-Arg-pNA 1.02 mmol/l, 0.48 μmol/l rFIXa)?
The V/V0 was 7.54.

And the V/V0 ([3]; 41% additive, MeSO2-D-CHG-Gly-Arg-pNA 1.02 mmol/l, […] rFIXa)?
Its V/V0 is 17.40.

And the V/V0 ([3]; 41% additive, MeSO2-D-HHT-Gly-Arg-pNA 1.02 mmol/l, 0.48 μmol/l rFIXa)?
The V/V0 was 9.68.

What about the V/V0 ([3]; 50% additive, MOC-D-Nle-Gly-Arg-pNA 0.82 mmol/l, 0.48 μmol/l rFIXa) of the same compound?
The V/V0 was 6.96.

And the V/V0 ([3]; 50% additive, MeSO2-D-CHA-Gly-Arg-pNA 1.02 mmol/l, 0.48 μmol/l rFIXa)?
Its V/V0 is 2.56.

What about the V/V0 ([3]; 50% additive, MeSO2-D-CHG-Gly-Arg-pNA 1.02 mmol/l, […] rFIXa) of the same compound?
Its V/V0 is 5.67.

What about the V/V0 ([3]; 50% additive, MeSO2-D-HHT-Gly-Arg-pNA 1.02 mmol/l, 0.48 μmol/l rFIXa) of the same compound?
The V/V0 was 3.41.

And the “quotient V/V0 relative to that with substrate MeSO2-D-HHT-Gly-Arg-pNA” value ([3]; above 25% ethylene glycol, substrates MOC-D-Nle-Gly-Arg-pNA and MeSO2-D-CHG-Gly-Arg-pNA)?
Its value is 1.5-2 fold.

And the “stimulation of the activity of rFIXa” value ([3]; concentration range of 15-40%)?
Its value is 5-15 fold.

What about the V/V0 ([4]; 8% alcohol) of the same compound?
The V/V0 was 0.973.

And the V/V0 ([4]; 16% alcohol)?
The V/V0 was 0.902.

What about the V/V0 ([4]; 25% alcohol) of the same compound?
The V/V0 was 0.741.

And the V/V0 ([4]; 33% alcohol)?
Its V/V0 is 0.558.

And the V/V0 ([4]; 41% alcohol)?
Its V/V0 is 0.347.

And the V/V0 ([4]; 50% alcohol)?
Its V/V0 is 0.191.

And the V/V0 ([5]; 8% alcohol)?
Its V/V0 is 0.892.

What about the V/V0 ([5]; 16% alcohol) of the same compound?
The V/V0 was 0.729.

And the V/V0 ([5]; 25% alcohol)?
The V/V0 was 0.551.

And the V/V0 ([5]; 33% alcohol)?
The V/V0 was 0.355.

What about the V/V0 ([5]; 41% alcohol) of the same compound?
Its V/V0 is 0.187.

And the V/V0 ([5]; 50% alcohol)?
Its V/V0 is 0.103.

What about the V/V0 ([6]; 8% alcohol) of the same compound?
Its V/V0 is 0.922.

And the V/V0 ([6]; 16% alcohol)?
The V/V0 was 0.790.

What about the V/V0 ([6]; 25% alcohol) of the same compound?
The V/V0 was 0.569.

And the V/V0 ([6]; 33% alcohol)?
Its V/V0 is 0.422.

And the V/V0 ([6]; 41% alcohol)?
Its V/V0 is 0.275.

And the V/V0 ([6]; 50% alcohol)?
The V/V0 was 0.165.

What about the “activation among plasma kallikrein, FXIIa, FXIa, FIXa, FXa and thrombin (in words)” value ([7]; 0-50% alcohol, MeSO2-D-HHT-Gly-Arg-pNA) of the same compound?
Its value is “only FIXa is activated”.

What about the V/V0 ([7]; 8% additive) of the same compound?
Its V/V0 is 3.13.

What about the V/V0 ([7]; 16% additive) of the same compound?
Its V/V0 is 6.19.

And the V/V0 ([7]; 25% additive)?
The V/V0 was 9.36.

What about the V/V0 ([7]; 33% additive) of the same compound?
Its V/V0 is 12.21.

What about the V/V0 ([7]; 41% additive) of the same compound?
Its V/V0 is 8.29.

What about the V/V0 ([7]; 50% additive) of the same compound?
Its V/V0 is 3.92.

What about the V/V0 ([8]; 8% alcohol) of the same compound?
Its V/V0 is 1.05.

What about the V/V0 ([8]; 16% alcohol) of the same compound?
Its V/V0 is 0.763.

And the V/V0 ([8]; 25% alcohol)?
Its V/V0 is 0.676.

What about the V/V0 ([8]; 33% alcohol) of the same compound?
Its V/V0 is 0.536.

What about the V/V0 ([8]; 41% alcohol) of the same compound?
Its V/V0 is 0.478.

And the V/V0 ([8]; 50% alcohol)?
The V/V0 was 0.290.
